Reference: patent US20240246967A1, “AXL COMPOUNDS” (ARCUS BIOSCIENCES, INC., priority 2021, published 2024)

Legend:
[1] = target: T1, human MER (Homo sapiens, UniProt Q12866); assay: HTRF KinEASE-TK biochemical potency assay, MER; conditions: 1 nM MER, 700 μM ATP, 800 nM TK Substrate-biotin
T1 construct: purchased Invitrogen
T1 sequence (Q12866 21-999): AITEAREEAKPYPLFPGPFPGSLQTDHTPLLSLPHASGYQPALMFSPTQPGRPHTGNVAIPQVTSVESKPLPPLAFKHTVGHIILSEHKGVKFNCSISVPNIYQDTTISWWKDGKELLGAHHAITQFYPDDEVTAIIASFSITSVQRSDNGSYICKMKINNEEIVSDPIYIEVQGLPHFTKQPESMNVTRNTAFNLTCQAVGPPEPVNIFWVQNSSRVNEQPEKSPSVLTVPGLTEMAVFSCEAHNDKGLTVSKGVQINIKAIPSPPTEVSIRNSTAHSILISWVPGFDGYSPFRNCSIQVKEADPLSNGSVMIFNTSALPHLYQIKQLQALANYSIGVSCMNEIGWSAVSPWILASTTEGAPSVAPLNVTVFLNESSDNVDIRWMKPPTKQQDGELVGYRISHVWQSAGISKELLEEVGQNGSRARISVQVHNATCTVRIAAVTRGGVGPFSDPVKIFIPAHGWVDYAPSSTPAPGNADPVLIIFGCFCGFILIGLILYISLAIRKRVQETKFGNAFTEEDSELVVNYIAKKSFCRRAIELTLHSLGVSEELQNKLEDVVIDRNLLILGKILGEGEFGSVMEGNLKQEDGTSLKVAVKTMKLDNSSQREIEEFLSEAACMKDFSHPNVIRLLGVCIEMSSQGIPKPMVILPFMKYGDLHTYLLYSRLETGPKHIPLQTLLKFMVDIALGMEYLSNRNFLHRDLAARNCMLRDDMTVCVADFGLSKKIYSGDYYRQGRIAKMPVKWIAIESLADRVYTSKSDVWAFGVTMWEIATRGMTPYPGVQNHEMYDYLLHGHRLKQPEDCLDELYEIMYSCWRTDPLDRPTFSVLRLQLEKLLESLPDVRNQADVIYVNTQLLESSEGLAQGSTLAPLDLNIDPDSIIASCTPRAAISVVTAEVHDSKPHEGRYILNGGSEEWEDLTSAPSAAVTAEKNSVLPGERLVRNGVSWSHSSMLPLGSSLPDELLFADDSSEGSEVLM
How it was run: (§1)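 Enzyme (final 5 nM AXL; 1 nM TYRO3 or MER) plus compound, 1 h RT → add biotinylated TK substrate (800 nM final) and ATP (700 μM final) → 2 h RT → stop into HTRF detection mix → read 665/620 nm. Activity normalised to DMSO and pre-stopped blanks.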

[2] = target: T2, human TYRO3 (Homo sapiens, UniProt Q06418); assay: HTRF KinEASE-TK biochemical potency assay, TYRO3; conditions: 1 nM TYRO3, 700 μM ATP, 800 nM TK Substrate-biotin
T2 construct: purchased Invitrogen
T2 sequence (Q06418 41-890): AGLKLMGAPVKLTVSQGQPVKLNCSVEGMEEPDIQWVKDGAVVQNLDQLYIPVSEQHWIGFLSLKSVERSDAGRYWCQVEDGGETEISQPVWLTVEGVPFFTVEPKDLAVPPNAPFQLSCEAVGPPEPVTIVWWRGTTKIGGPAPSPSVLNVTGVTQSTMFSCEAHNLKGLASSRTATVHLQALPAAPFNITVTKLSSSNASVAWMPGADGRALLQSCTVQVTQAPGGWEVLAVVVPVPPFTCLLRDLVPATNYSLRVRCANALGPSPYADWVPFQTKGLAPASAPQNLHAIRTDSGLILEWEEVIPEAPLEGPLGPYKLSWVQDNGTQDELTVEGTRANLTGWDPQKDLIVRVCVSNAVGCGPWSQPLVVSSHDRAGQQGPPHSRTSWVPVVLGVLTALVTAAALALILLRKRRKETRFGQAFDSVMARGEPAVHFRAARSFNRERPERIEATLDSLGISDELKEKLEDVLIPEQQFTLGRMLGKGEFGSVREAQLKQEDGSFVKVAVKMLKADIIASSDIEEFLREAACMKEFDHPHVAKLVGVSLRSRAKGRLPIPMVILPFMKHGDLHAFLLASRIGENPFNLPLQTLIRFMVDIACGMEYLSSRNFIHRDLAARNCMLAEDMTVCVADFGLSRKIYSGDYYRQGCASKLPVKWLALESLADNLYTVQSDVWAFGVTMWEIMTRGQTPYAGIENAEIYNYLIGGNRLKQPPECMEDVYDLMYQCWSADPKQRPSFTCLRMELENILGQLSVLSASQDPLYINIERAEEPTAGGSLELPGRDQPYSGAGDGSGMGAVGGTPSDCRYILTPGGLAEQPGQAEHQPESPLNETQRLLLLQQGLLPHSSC
How it was run: as §1

SMILES | IC50 [1] [µM] | IC50 [2] [µM]
C[C@H]1CCCN1C1CCc2ccc(-c3cnc4[nH]nc(-c5ccc(C(C)(C)O)c(Cl)c5)c4c3)cc2CC1 (stereo partly drawn) [Example 37, 2-(2-Chloro-4-(5-(7-((S)-2-methylpyrrolidin-1-yl)-6,7,8,9-tetrahydro-5H-benzo[7]annulen-2-yl)-1H-pyrazolo[3,4-b]pyridin-3-yl)phenyl)propan-2-ol] | 0.1 to 1 | 0.1 to 1
Cc1cc(-c2n[nH]c3ncc(-c4ccc5c(c4)CC[C@@H](N4CCCC4)CC5)cc23)cc(Cl)c1C(=O)N1CCNCC1 [Example 56, 1-(2-Chloro-6-methyl-4-{5-[(7S)-7-(pyrrolidin-1-yl)-6,7,8,9-tetrahydro-5H-benzo[7]annulen-2-yl]-1H-pyrazolo[3,4-b]pyridin-3-yl}benzoyl)piperazine] | < 0.1 | < 0.1
C[C@@H]1CCCN1[C@@H]1CCc2cc(-c3cnc4[nH]nc(-c5ccc(S(=O)(=O)C6CC6)cc5)c4c3)cnc2CC1 [Example 101, (2R)-1-(3-{3-[4-(Cyclopropanesulfonyl)phenyl]-1H-pyrazolo[3,4-b]pyridin-5-yl}-5H,6H,7H,8H,9H-cyclohepta[b]pyridin-7-yl)-2-methylpyrrolidine] | > 1 | 0.1 to 1
O=C1OCCN1c1ccc(-c2n[nH]c3ncc(-c4ccc5c(c4)CC[C@@H](N4C6COCC4C6)CC5)cc23)cc1 [Example 121, 3-(4-{5-[(7S)-7-{3-oxa-6-azabicyclo[3.1.1]heptan-6-yl}-6,7,8,9-tetrahydro-5H-benzo[7]annulen-2-yl]-2H-pyrazolo[3,4-b]pyridin-3-yl}phenyl)-1,3-oxazolidin-2-one] | > 1 | 0.1 to 1
C[C@@H]1CCCN1C1CCc2ccc(-c3cnc4[nH]nc(-c5ccc(C6(O)CCC6)c(Cl)c5)c4c3)cc2CC1 (stereo partly drawn) [Example 62, 1-[2-Chloro-4-(5-{7-[(2R)-2-methylpyrrolidin-1-yl]-6,7,8,9-tetrahydro-5H-benzo[7]annulen-2-yl}-1H-pyrazolo[3,4-b]pyridin-3-yl)phenyl]cyclobutan-1-ol] | 0.1 to 1 | 0.1 to 1
CC(C)(O)c1ccc(-c2n[nH]c3ncc(-c4ccc5c(c4)CCC4(CCCN4)CC5)cc23)cc1Cl (stereo not shown) [Example 96, 2-[2-Chloro-4-(5-{5,6,8,9-tetrahydrospiro[benzo[7]annulene-7,2′-pyrrolidin]-3-yl}-1H-pyrazolo[3,4-b]pyridin-3-yl)phenyl]propan-2-ol] | > 1 | 0.1 to 1
Cc1cc(-c2n[nH]c3ncc(-c4ccc5c(c4)CC[C@@H](N4CCCC4)CC5)cc23)cc(C)c1C(=O)N1CCNCC1 [Example 55, 1-(2,6-Dimethyl-4-{5-[(7S)-7-(pyrrolidin-1-yl)-6,7,8,9-tetrahydro-5H-benzo[7]annulen-2-yl]-1H-pyrazolo[3,4-b]pyridin-3-yl}benzoyl)piperazine] | 0.1 to 1 | < 0.1
c1cc2c(cc1-c1cnc3[nH]nc(-c4ccc(N5C[C@H]6C[C@@H]5CO6)cc4)c3c1)CC[C@@H](N1C3COCC1C3)CC2 [Example 126, (1R,4R)-5-(4-{5-[(7S)-7-{3-oxa-6-azabicyclo[3.1.1]heptan-6-yl}-6,7,8,9-tetrahydro-5H-benzo[7]annulen-2-yl]-2H-pyrazolo[3,4-b]pyridin-3-yl}phenyl)-2-oxa-5-azabicyclo[2.2.1]heptane] | > 1 | > 1
CS(=O)(=O)c1ccc(-c2n[nH]c3ncc(-c4ccc5c(c4)CCN(C4CCCC4)CC5)cc23)cc1Cl [Example 31, 7-(3-(3-Chloro-4-(methylsulfonyl)phenyl)-1H-pyrazolo[3,4-b]pyridin-5-yl)-3-cyclopentyl-2,3,4,5-tetrahydro-1H-benzo[d]azepine] | 0.1 to 1 | < 0.1

Other lines, results leading:

IC50 [1] [µM] | IC50 [2] [µM] | SMILES
> 1 | 0.1 to 1 | COCCNCc1ccc(-c2n[nH]c3ncc(-c4ccc5c(c4)CCC(C)(N4CCC[C@H]4C)CC5)cc23)cc1 (stereo partly drawn) [Example 108, (2-Methoxyethyl)({[4-(5-{7-methyl-7-[(2R)-2-methylpyrrolidin-1-yl]-6,7,8,9-tetrahydro-5H-benzo[7]annulen-2-yl}-1H-pyrazolo[3,4-b]pyridin-3-yl)phenyl]methyl})amine]
0.1 to 1 | 0.1 to 1 | C[C@H]1CCCN1C1(C)CCc2ccc(-c3cnc4[nH]nc(-c5ccc(C(C)(C)O)c(Cl)c5)c4c3)cc2CC1 (stereo partly drawn) [Example 58, 2-[2-Chloro-4-(5-{7-methyl-7-[(2S)-2-methylpyrrolidin-1-yl]-6,7,8,9-tetrahydro-5H-benzo[7]annulen-2-yl}-1H-pyrazolo[3,4-b]pyridin-3-yl)phenyl]propan-2-ol]
0.1 to 1 | 0.1 to 1 | C[C@H]1CCCN1C1CCc2ccc(-c3cnc4[nH]nc(-c5ccc(S(=O)(=O)C6CC6)cc5)c4c3)cc2CC1 (stereo partly drawn) [Example 24, 3-(4-(Cyclopropylsulfonyl)phenyl)-5-(7-((S)-2-methylpyrrolidin-1-yl)-6,7,8,9-tetrahydro-5H-benzo[7]annulen-2-yl)-1H-pyrazolo[3,4-b]pyridine]
0.1 to 1 | 0.1 to 1 | C[C@@H]1CCCN1C1(C)CCc2ccc(-c3cnc4[nH]nc(-c5ccc(S(=O)(=O)C6CCC6)cc5)c4c3)cc2CC1 (stereo partly drawn) [Example 46, 3-(4-(Cyclobutylsulfonyl)phenyl)-5-(7-methyl-7-((R)-2-methylpyrrolidin-1-yl)-6,7,8,9-tetrahydro-5H-benzo[7]annulen-2-yl)-1H-pyrazolo[3,4-b]pyridine]
0.1 to 1 | 0.1 to 1 | CCS(=N)(=O)c1ccc(-c2n[nH]c3ncc(-c4ccc5c(c4)CCC(C)(N4CCC[C@H]4C)CC5)cc23)cc1 (stereo partly drawn) [Example 100, Ethyl(imino)[4-(5-{7-methyl-7-[(2R)-2-methylpyrrolidin-1-yl]-6,7,8,9-tetrahydro-5H-benzo[7]annulen-2-yl}-1H-pyrazolo[3,4-b]pyridin-3-yl)phenyl]-λ^6-sulfanone]
> 1 | 0.1 to 1 | O=C([C@@H]1CCCN1)N1CCc2ccc(-c3cnc4[nH]nc(-c5ccc(S(=O)(=O)C6CC6)cc5)c4c3)cc2CC1 [Example 112, 7-{3-[4-(Cyclopropanesulfonyl)phenyl]-1H-pyrazolo[3,4-b]pyridin-5-yl}-3-[(2S)-pyrrolidine-2-carbonyl]-2,3,4,5-tetrahydro-1H-3-benzazepine]
> 1 | 0.1 to 1 | C[C@@H]1CCCN1C1(C)CCc2ccc(-c3cnc4[nH]cc(-c5ccc(S(=O)(=O)C6CC6)cc5)c4c3)cc2CC1 (stereo partly drawn) [Example 105, (2R)-1-(2-{3-[4-(Cyclopropanesulfonyl)phenyl]-1H-pyrrolo[2,3-b]pyridin-5-yl}-7-methyl-6,7,8,9-tetrahydro-5H-benzo[7]annulen-7-yl)-2-methylpyrrolidine]
> 1 | > 1 | C[C@@H]1CCCN1C1(C)CCc2ccc(-c3cnc4[nH]nc(-c5ccc(S(=O)(=O)C(F)(F)F)cc5)c4c3)cc2CC1 (stereo partly drawn) [Example 8, (2R)-2-Methyl-1-{7-methyl-2-[3-(4-trifluoromethanesulfonylphenyl)-1H-pyrazolo[3,4-b]pyridin-5-yl]-6,7,8,9-tetrahydro-5H-benzo[7]annulen-7-yl}pyrrolidine]
